Read-outs that look alike come from different tables or passages of the source.

What all share (assay type): in vivo
For one series, the system named is Wheat. As to the method: (§1) Herbicidal Action (Outdoor Trials)
(§2) The seeds or rhizome pieces of typical harmful plants were planted and grown under natural outdoor conditions. After the harmful plants had emerged, they were treated, as a rule at the 2- to 4-leaf stage, with various dosages of the compositions according to the invention at a water application rate of 100 to 400 I/ha (converted).
(§3) After the treatment (approx. 4-6 weeks after application), the herbidical activity of the active compounds or active compound mixtures was scored visually by comparing the treated plots with the untreated control plots. Damage and development of all above-ground parts of the plants was recorded. Scoring was done on a percentage scale (100% action=all plants dead; 50% action=50% of the plants and green plant parts dead; 0% action=no discernible action=like control plot). The score figures of in each case 4 plots were averaged.
(§4) The results are listed in the tables below, where the activity measured for the independent use of the active compounds (A) and (B) is stated in brackets and where g of AS/ha denotes grams of active substance per hectare.

The next series deals with Veronica hederifolia. Briefly: Herbicidal action (outdoor trials), post-emergence, Veronica hederifolia. The settings on record: visual score approx. 4-6 weeks after application, mean of 4 plots. As to the method: as §1, §2, §3, §4
A further series concerns Setaria viridis. Briefly: Herbicidal action (outdoor trials), post-emergence, Setaria viridis. The settings on record: read-out: Setaria viridis % activity. The method, then:
as §1, §2, §3, §4

`CCOC(=O)/C(Cl)=C/c1cc(N2C(=O)C3=C(CCCC3)C2=O)ccc1Cl` [cinidon-ethyl (B7), ethyl (Z)-2-chloro-3-[2-chloro-5-(1,2-cyclohex-1-enedicarboximido)phenyl]acrylate] yielded a Wheat % activity in the series on Wheat (25 g of AS/ha, outdoor, visual score approx. 4-6 weeks after application, mean of 4 plots) of 0%. In the series with Wheat (50 g of AS/ha, outdoor, visual score approx. 4-6 weeks after application, mean of 4 plots), this compound had a Wheat % damage of 5%. In addition, the “Veronica hederifolia % damage” value in the series with Veronica hederifolia (25 g of AS/ha) worked out at 35%. In the series with Veronica hederifolia (50 g of AS/ha), the “Veronica hederifolia % activity” value was found to be 25%.

With `COc1ncc(F)c2nc(S(=O)(=O)Nc3c(F)cccc3F)nn12` [florasulam (B3), 2′,6′,8′-trifluoro-5-methoxy[1,2,4]triazolo[1,5-c]pyrimidine-2-sulfanilide], the Wheat % activity in the series with Wheat (4 g of AS/ha, outdoor, visual score approx. 4-6 weeks after application, mean of 4 plots) is on record as 0%. In the series on Veronica hederifolia (4 g of AS/ha), the “Veronica hederifolia % damage” value is listed as 60%.

Consider `COc1nn(C(=O)NS(=O)(=O)c2ccccc2OC(F)(F)F)c(=O)n1C.[Na]` [flucarbazone (B1), 4,5-dihydro-3-methoxy-4-methyl-5-oxo-N-(2-trifluoromethoxyphenylsulfonyl)-1H-1,2,4-triazole-1-carboxamide sodium salt], for which the Wheat % damage with Wheat (10 g of AS/ha, outdoor, visual score approx. 4-6 weeks after application, mean of 4 plots) is 5%. For the same compound, the inhibition at 10 g/ha in the series on Setaria viridis worked out at 40%.

In the series with Wheat (in vivo), `O=C(Nc1ccc(F)cc1)c1cccc(Oc2cccc(C(F)(F)F)c2)n1` [picolinafen (B6), 4′-fluoro-6-[(α,α,α-trifluoro-m-tolyl)oxy]picolinanilide] showed a Wheat % activity of 0% and a Wheat % damage of 0%. Further, the “Veronica hederifolia % damage” value in the series with Veronica hederifolia (5 g of AS/ha) is 55%. Further, in the series with Veronica hederifolia (Veronica hederifolia, 30 g of AS/ha), the inhibition at 30 g/ha was 65%.

(Values after patent US8158558B2, “Herbicide combinations comprising specific sulfonylureas” (Bayer CropScience GmbH, priority 2001, dated 2012).)
